According to patent US6599713B1, “Method for quantitating leukocyte count in whole blood sample” (priority 1999, dated 2003):

System: white blood cells contained in a whole blood sample
Assay: MPO-releasing effects of various surfactants on whole blood, ELISA (Examples 3 to 5)
Format: cell-based, human
Details: Example 3 (Table 3): 500 μl blood + 500 μl 1% (w/v) surfactant solution, 60 minutes on ice, mean ± SD of 3
Description: 10 ml of healthy human whole blood was collected using a 28 G winged intravenous injection needle (manufactured and sold by Terumo Corporation, Japan), and immediately mixed with 10 mg of EDTA-2K (manufactured and sold by Dojin Laboratories, Japan), and the resultant EDTA-containing whole blood sample was subjected to the below-described various measurements within 1 hour from the blood collection.
500 μl of the blood was put in a 2-ml Eppendorf tube, and 500 μl of a 1% (w/v) aqueous surfactant solution was added to the tube, and the resultant mixture was stirred for 2 seconds by a Vortex mixer. Subsequently, the mixture was allowed to stand for 60 minutes on ice to thereby lyze the white blood cells. After the lysis of the white blood cells, 100 μl of the mixture was taken out and added to 900 μl of a PBS solution containing dissolved therein 1% BSA (trade name: “Sigma fraction V”, manufactured and sold under the brand of SIGMA™, U.S.A.). The resultant mixture was stirred by a Vortex mixer, and then 10 μl of the mixture was taken out and diluted 2,000-fold with 1% BSA/PBS solution. The resultant diluted mixture was subjected to a measurement by ELISA.
The outline of the ELISA is as follows. A 5 μg/ml PBS solution of an anti-MPO antibody was put into the wells of a Nunc Immuno Plate (manufactured and sold by Nalge Nunc International, Denmark) in an amount of 100 μl per well. The solution in each well was sealed and subjected to a reaction for 18 hours at 4° C. thereby immobilizing the primary antibody. The wells were washed with a washing solution (0.05% Tween™ 20/PBS) and then subjected to blocking for 1 hour at room temperature by using 200 μl of a blocking solution (1% BSA/PBS), and then washed twice with the washing solution. […] The wells were washed 5 times with a washing solution, and 100 μl of a just-prepared TMB solution (manufactured and sold by Kirkegaad & Perry Laboratories, U.S.A.) was added thereto to effect a color reaction. 2 Minutes after the start of the color reaction, 100 μl of a 1 N sulfuric acid solution (manufactured and sold by Nacalai Tesque, Inc., Japan) was added to the wells to thereby terminate the reaction. Then, the absorbance at 450 nm was measured by means of a plate reader (manufactured and sold by Bio-Rad Laboratories, U.S.A.).
With respect to the measurement of the MPO concentration of the sample, MPO (manufactured and sold by Elastin Products Co., INC., U.S.A.) was added to the sample so that the final concentration of the added MPO became 5 ng/ml or 10 ng/ml, and the resultant mixture was measured with respect to the MPO concentration. From the obtained value of MPO concentration, a calibration curve for each sample was obtained. The obtained calibration curve was corrected, based on its relationship with a calibration curve obtained with respect to a standard MPO solution, and the corrected calibration curve of each sample was used to determine the MPO concentration of the whole blood. The measurement was conducted 3 times, and a mean value±standard deviation was obtained.

“α-[4-(1,1,3,3,-Tetramethylbutyl)phenyl]-ω-hydroxypoly(oxy-1,2-ethanediyl) [Triton ™ X-100]” was tested. Which “MPO concentration of whole blood” value did it give?
Its value is 6.43 ± 1.25 µg/mL.
